From patent US4684650A, “Antihypertensive fluorophenylindanyl imidazolidinoneethylpiperazines” (priority 1984, dated 1987)
Where two headings read alike, the source gives them in different places.

What was measured:
[1] = test system: methylphenidate induced stereotypies; assay: Methylphenidate Antagonism; assay type: in vivo, mice; settings: for ED50: Mus musculus, ip, read-out: MePh antg. ED50, i.p., mice, 2 hours before methylphenidate 60 mg/kg s.c.; for MePh antg. ED50: i.p., mice, 2 hours before methylphenidate 60 mg/kg s.c.
Description: The experiments were made as described by Pedersen and Christensen (1972) Acta Pharmacol. et Toxicol. 31, 488-496.--Briefly, test compounds or saline were injected i.p. 2 hours before methylphenidate, 60 mg/kg s.c. 3 pairs of mice were used for each dose level. After methylphenidate injection the mice were placed in observation cages for one hour. The cages were placed on corrugated paper, the corrugation facing upwards.

[2] = test system: 1-5-HTP-induced head shakes; assay: 1-5-HTP-induced head shakes; assay type: in vivo; settings: rats, 1-5-HTP 75 mg/kg i.p. after citalopram; for ED50: Rattus norvegicus, sc, read-out: 1-5-HTP-antg. ED50; for 1-5-HTP-antg. ED50: s.c.
Description: The rats were pretreated subcutaneously with test compound or saline simultaneously with or 90 min before injection of citalopram (10 mg/kg s.c.).
Each group consisted of 4-12 rats.

5-HT2 receptors = biological target: T1, 5-HT2 receptors (Rattus norvegicus, UniProt P14842); assay: 3H-spiroperidol binding to 5-HT2 receptors; settings: rat whole cortex, 0.5 nM 3H-spiroperidol, 0.3 μM sulpiride; read-out: 3H-SPI binding 5-HT2 IC50
T1 construct: Rat whole cortex was homogenized by an Ultra Turrax homogenizer; from tissue; host or cells: rat whole cerebral cortex, crude washed membranes
T1 sequence (P14842 whole entry): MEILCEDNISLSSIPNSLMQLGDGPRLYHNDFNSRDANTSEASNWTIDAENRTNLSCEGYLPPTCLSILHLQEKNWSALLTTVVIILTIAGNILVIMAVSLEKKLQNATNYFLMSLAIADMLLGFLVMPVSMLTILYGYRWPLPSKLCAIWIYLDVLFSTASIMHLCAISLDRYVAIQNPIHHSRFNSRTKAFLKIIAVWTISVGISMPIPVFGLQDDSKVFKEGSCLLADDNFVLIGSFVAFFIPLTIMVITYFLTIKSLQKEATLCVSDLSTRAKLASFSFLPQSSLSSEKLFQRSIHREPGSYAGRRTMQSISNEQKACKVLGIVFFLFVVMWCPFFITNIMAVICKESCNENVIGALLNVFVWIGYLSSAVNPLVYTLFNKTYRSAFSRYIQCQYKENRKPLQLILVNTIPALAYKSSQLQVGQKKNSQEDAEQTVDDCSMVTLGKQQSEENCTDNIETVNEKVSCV
Description: ^3 H-spiroperidol binding to 5-HT2 receptors.
Rat whole cortex was homogenized by an Ultra Turrax homogenizer in 100 vol. of 50 mM Tris buffer pH 7.7. The homogenate was centrifuged at 20,000 g for 10 minutes at 4° C. The pellet was rehomogenized in another volume of buffer and centrifuged as mentioned above. The final pellet was rehomogenized in 50 mM Tris buffer pH 7.7 containing 120 mM NaCl, 5 mM KCl, 2 mM CaCl2 and 1 mM MgCl2 (ion mix) in a volume corresponding to 12.5 mg original tissue per ml.
Test drugs were dissolved in water; ^3 H-spiroperidol (NEN, 28-30 Ci/mmol) was diluted in 3 μM sulpiride, and 800 μl membrane suspension were added. Final concentration of ligand and sulpiride were 0.5 nM and 0.3 μM, respectively. The samples were incubated at 37° C. for 10 min. The samples were then filtered under vacuum through Whatman GF/B glass-fiber filters. The tubes were then rinsed with 5 ml incubation buffer, which was poured on the filters. The filters were finally washed twice with 5 ml buffer and placed in counting vials. After addition of 5 ml scintillation fluid (Lumagel) radioactivity was estimated by liquid scintillation counting. Non-specific binding was obtained by adding Mianserin (1 μM) to separate samples. Each drug was tested at least twice at 5 concentrations in triplicate. IC50-values were determined from log concentration-response curves.--The presence of sulpiride excluded binding to dopamine D-2 receptors.

[3] = test system: spontaneous hypertensive rats (SHR); assay: Antihypertensive effect in spontaneous hypertensive rats (SHR); assay type: in vivo; settings: for change in vivo at 5 mg/kg / ED10: Rattus norvegicus, ip; for change in vivo at 5 mg/kg: 1 h; for peripheral or central action: in words; for Antihypertensive eff. SHR, max eff. in % of 5 mg/kg ip, DAP: diastolic pressure (DAP); for Antihypertensive eff. SHR, max eff. in % of 5 mg/kg ip, DAP / Antihypertensive eff. SHR, max eff. in % of 5 mg/kg ip, SAP: max change within one hour; for Antihypertensive eff. SHR, max eff. in % of 5 mg/kg ip, SAP: systolic pressure (SAP)
Description: Antihypertensive effect in spontaneous hypertensive rats (SHR)
The femoral artery of male SHR is cannulated in anaestesia for blood pressure recordings. After a stabilization period of 11/2 h after discontinuation of the anaesthesia initial blood pressure curves are recorded and the systolic (SAP)/diastolic (DAP) pressure determined (-20, -10, 0, min. p.i.) Test substance is injected i.p. and the pressure curve recorded for one hour. The change in SAP/DAP is calculated in percent at mean initial values at different times (10, 20, 30, 40, 50 and 60 minutes after injection). At least two SHR are used per dose level. The maximum change is used for estimation of the drug effect.

5-HT pressor responses = assay: Antagonism to 5-HT pressor responses in pithed rats; assay type: in vivo; settings: for change in vivo at 0.02 mg/kg / ED50: Rattus norvegicus, iv; for change in vivo at 0.02 mg/kg: read-out: Effects on pressor response of 5-HT, % eff. of 0.02 mg/kg, pithed rats, 0.02 mg/kg, jugular vein; for ED50: read-out: Effects on pressor response of 5-HT, ED50, pithed rats, jugular vein
Description: (§1) The rat is anaesthetized with ether, tracheotomized, artificial respired and pithed. The knitting-needle is introduced through the right orbita into the cranial cavity and passed through foramen magnum into the spinal canal as far as possible. The spinal cord is destroyed by turning the needle. After vagotomi both carotides are ligated and a catheter placed in the right one for pressure recording. The rat is adrenalectomized. […] The initial and post medication mean pressor effect is calculated, and the mean pressor effect is calculated as % of the initial value. Two to five preparations are employed for each dose level. The ED50 is determined.

[4] = test system: phenylephrine pressor responses; assay: Antagonism to phenylephrine pressor responses in pithed rats; assay type: in vivo; settings: for ED50: Rattus norvegicus, iv, read-out: Effects on pressor response of Phenylephrine, ED50; for Phenylephr. antg./5-HT antg. (ratio): pithed rats, ratio of phenylephrine ED50 to 5-HT ED50
Description: as §1

[5] = read-out: Antihypertensive eff. SHR, max eff. in % of 5 mg/kg ip, DAP, 5 mg/kg ip, diastolic pressure (DAP), max change within one hour
[6] = read-out: Antihypertensive eff. SHR, max eff. in % of 5 mg/kg ip, SAP, 5 mg/kg ip, systolic pressure (SAP), max change within one hour
[7] = read-out: Antihypertensive eff. SHR, ED10 DAP
[8] = read-out: Antihypertensive eff. SHR, ED10 SAP

Row | SMILES | ED50 [1] [µmol/kg] | activity against methylphenidate induced stereotypies ([1]; in words) | ED50 [2] [µmol/kg] | IC50 (5-HT2 receptors) [nM] | change in vivo at 5 mg/kg [3, 5] [%] | change in vivo at 5 mg/kg [3, 6] [%] | peripheral or central action [3] | change in vivo at 0.02 mg/kg (5-HT pressor responses) [%] | ED50 (5-HT pressor responses) [µmol/kg] | ED50 [4] [µmol/kg] | Phenylephr. antg./5-HT antg. (ratio) [4] | ED10 [3, 7] [µmol/kg] | ED10 [3, 8] [µmol/kg] | Antihypertensive eff. SHR, max eff. in % of 5 mg/kg ip, SAP/DAP (inactive) [3] | Antihypertensive eff. SHR, max eff. in % of 5 mg/kg ip, DAP [3] | Antihypertensive eff. SHR, max eff. in % of 5 mg/kg ip, SAP [3] | Effects on pressor response of 5-HT, % eff. of 0.02 mg/kg (5-HT pressor responses; pithed rats, jugular vein) [%] | MePh antg. ED50 [1] [µmol/kg] | 1-5-HTP-antg. ED50 [2] [µmol/kg] | Effects on pressor response of 5-HT, ED50 (5-HT pressor responses; pithed rats, jugular vein) [µmol/kg]
1 | OCCN1CCN([C@@H]2C[C@@H](c3ccc(F)cc3)c3ccc(C(F)(F)F)cc32)CC1 (racemic) [Tefludazine, (±)trans-4-[3-(4-fluorophenyl)-6-(trifluoromethyl)-indan-1-yl]-1-piperazineethanol, reference compound] | 0.06 | high activity | 0.039 | 8.6 | -24 | -18 | marked central effects | -78 | 0.015 | 1.7 | 115 | – | – | – | – | – | – | – | – | –
2 | O=C1NCCN1CCN1CCN([C@@H]2C[C@@H](c3ccc(F)cc3)c3ccccc32)CC1 (relative stereo) [compound 1] | > 98 | – | 1.3 | 25 | -43 | -33 | – | -68 | 0.024 | 3.13 | – | 4.2 | 5.9 | – | – | – | – | – | – | –
3 | O=C1NCCN1CCN1CCN([C@@H]2C[C@@H](c3ccc(F)cc3)c3ccc(F)cc32)CC1 (relative stereo) [compound 2] | 79 | – | 0.13 | 6.7 | -19 | -14 | – | -89 | 0.017 | 2.55 | 150 | 4.1 | 9.2 | – | – | – | – | – | – | –
4 | CN1CCN(CCN2CCN([C@@H]3C[C@@H](c4ccc(F)cc4)c4ccc(F)cc43)CC2)C1=O (relative stereo) [compound 3] | > 78 | – | 0.08 | 3.4 | -13 | -11 | – | -87 | 0.01 | 14 | 1400 | – | – | – | – | – | – | – | – | –
5 | Cc1ccc2c(c1)[C@H](N1CCN(CCN3CCNC3=O)CC1)C[C@H]2c1ccc(F)cc1 (relative stereo) [compound 4, Trans-1-[3-(4-fluorophenyl)-6-methylindan-1-yl]-4-[2-(2-imidazolidinon-1-yl)ethyl]piperazine] | 27 | – | 0.13 | 23 | -32 | -27 | – | -73 | 0.017 | 2.02 | 119 | 2.4 | 3.3 | – | – | – | – | – | – | –
6 | Cc1ccc2c(c1)[C@H](N1CCN(CCN3CCOC3=O)CC1)C[C@H]2c1ccc(F)cc1 (relative stereo) [compound 9] | 29 | – | 0.45 | 21 | -41 | -32 | – | -73 | 0.02 | 1.51 | 76 | 3.5 | 4.5 | – | – | – | – | – | – | –
7 | CC(C)N1CCN(CCN2CCN([C@@H]3C[C@@H](c4ccc(F)cc4)c4ccc(F)cc43)CC2)C1=O (relative stereo) [compound 13] | > 73 | – | 0.11 | 5.2 | -5 | -5 | marked central effects | -79 | – | – | – | – | – | – | – | – | – | – | – | –
8 | O=c1[nH]c2ccccc2n1CCN1CCN([C@@H]2C[C@@H](c3ccc(F)cc3)c3ccc(F)cc32)CC1 (relative stereo) [compound 16] | > 72 | – | 0.28 | 9.7 | -11 | -15 | – | -52 | – | – | – | – | – | – | – | – | – | – | – | –
9 | O=C1CCCN1CCN1CCN([C@@H]2C[C@@H](c3ccc(F)cc3)c3ccc(F)cc32)CC1 (relative stereo) [compound 18] | 18 | – | 0.76 | 12 | – | – | – | -67 | – | – | – | – | – | I | – | – | – | – | – | –
10 | CN1CCC(CCN2CCN([C@H]3C[C@H](c4ccc(F)cc4)c4ccccc43)CC2)C1=O (relative stereo) [compound 23] | > 61 | – | 1.4 | 16 | – | – | – | – | – | – | – | – | – | – | -43% | -31% | -38 | – | – | –
11 | O=C1NCCCN1CCN1CCN([C@@H]2C[C@@H](c3ccc(F)cc3)c3ccc(F)cc32)CC1 (relative stereo) [compound 25] | > 59 | – | 1.2 | 12 | – | – | – | -60 | – | – | – | – | – | I | – | – | – | – | – | –
12 | Fc1ccc([C@@H]2C[C@@H](N3CCN(CCN4CCNC4=S)CC3)c3ccccc32)cc1 (relative stereo) [compound 27, Trans-1-[3-(4-fluorophenyl)-indan-1-yl]-4-[2-(imidazolidin-2-thion-1-yl)ethyl]piperazine] | > 61 | – | 0.48 | 4.7 | -29 | -18 | – | -71 | – | – | – | – | – | – | – | – | – | – | – | –
13 | Fc1ccc([C@@H]2C[C@@H](N3CCN(CCN4CCNC4=S)CC3)c3cc(F)ccc32)cc1 (single isomer, unassigned) [+24] | 17 | – | 0.03 | 2.5 | -40 | -32 | – | -88 | – | – | – | – | – | – | – | – | – | – | – | –
14 | O=C1NCCN1CCN1CCN([C@@H]2C[C@@H](c3ccc(F)cc3)c3ccccc32)CC1 (single isomer, unassigned) [-1] | – | – | – | 130 | – | – | – | – | – | – | – | – | – | – | -11% | -3% | -11 | > 97 | 8.9 | –
15 | O=C1NCCN1CCN1CCN([C@@H]2C[C@@H](c3ccc(F)cc3)c3ccc(F)cc32)CC1 (single isomer, unassigned) [-2] | – | – | – | 320 | – | – | – | 2 | – | – | – | – | – | – | +4% | +6% | – | > 61 | 20 | 1.43
16 | CN1CCN(CCN2CCN([C@@H]3C[C@@H](c4ccc(F)cc4)c4ccc(F)cc43)CC2)C1=O (single isomer, unassigned) [-3] | – | – | – | 410 | – | – | – | – | – | – | – | – | – | I | – | – | -6 | > 91 | 45 | –
